# PMC8533206 (Antioxidants, 2021)
# Where a name gives a salt, the structure may show the parent alone. Read-outs that look alike come from different tables or passages of the source.
# Columns and labels:
# [1] = Protective effect against 6-OHDA-induced cytotoxicity in PC12 cells (MTT); settings: rat
# Protocol: (§1) PC12 cells were routinely maintained in RPMI-1640 media containing 100 IU/mL penicillin, and 100 μg/mL streptomycin supplemented by 10% heat-inactivated HS, 5% FBS in a humidified incubator containing 5% CO2 and 95% air at 37 °C [25]. The cell culture media was changed every two days. To perform experiments, cells were plated on poly-D-lysine/laminin-coated 24-well plates at a density of 3 × 10^5 cells/well and incubated for at least 24 h to allow cell adhesion.
# (§2) To examine the effects of the test compounds on cell survival, cells were incubated in low serum media (1% HS, 1% FBS, 100 IU/mL penicillin, and 100 μg/mL streptomycin) with test compounds at the concentrations of 10 and 30 μM or an equivalent volume of vehicle control (DMSO at the final concentration of 0.3%) for 24 h. The media containing test compounds was sonicated at room temperature for 30 min to assure adequate dissolution in the media. […]
# (§3) After the desired treatment, cell viability was determined by MTT assay as described previously, with slight modification. […] The absorbance of the dissolved solution was measured at 550 nm using a microplate reader (SpectraMax M2e, Molecular Devices, Sunnyvale, CA, USA). The cell viability was presented as the percentage of the absorbance measured in the vehicle-treated control cells. […]
# [2] = system: PC12 cells; assay: 6-OHDA-induced ROS generation in PC12 cells (H2-DCFDA); format: cell-based, rat
# Protocol: (§4) The involvement of oxidative stress in the observed reduction in cell viability was investigated using the fluorescent dye H2-DCFDA as described previously. Briefly, cells were loaded with 10 μM H2-DCFDA for 30 min at 37 °C. Subsequently, cells were exposed for 4 h to 10 μM of test compounds followed by the addition of 50 μM 6-OHDA or 1 μM rotenone for 20 h, and fluorescence was measured spectrophotometrically at 488/520 nm in a microplate reader (SpectraMax M2e). N-acetylcysteine (NAC, 5 mM) was included as a […] control for oxidative stress.
# [3] = system: MAO-B; settings: cited from earlier work; for % MAO-B Inhibition: single dose 10 μM; for Selectivity Index (SI): MAO-B over MAO-A, calculated
# [4] = system: MAO-A; settings: cited from earlier work
# [5] = system: PC12 cells; assay: Rotenone-induced ROS generation in PC12 cells (H2-DCFDA); format: cell-based, rat; settings: 5 mM, positive reference
# Protocol: as §4
# [6] = system: PC12 cells; assay: Protective effect against rotenone-induced cytotoxicity in PC12 cells (MTT); settings: 1 μM rotenone, 24 h, compared to vehicle-treated control
# Protocol: as §1, §2, §3
# [7] = previously reported indazole derivatives
smiles,measurement,setting,value
"NCCc1cc(O)c(O)cc1O [Compound 6-OHDA, 6-Hydroxydopamine, reference compound]","viability at 24 h, 50 μM",[1],47.5 ± 1.2%
same,"ROS generation, fold of control cells","[2]; 6-OHDA 50 μM, 20 h",approximately 4 fold
Cn1cc(C(=O)Nc2ccc3[nH]ncc3c2)ccc1=O [IV],IC50,[3]; [7],> 10 µM
same,IC50,[4]; [7],> 10 µM
O=C(Nc1ccc2c(ccn2Cc2ccc(F)cc2)c1)c1cnccn1 [IX],IC50,[3]; previous study,1.66 µM
same,% MAO-B Inhibition,[3]; previous study,88.49%
same,IC50,[4]; previous study,> 100 µM
"CC(=O)N[C@@H](CS)C(=O)O [NAC, N-acetylcysteine, reference compound]",Effect on 6-OHDA-induced ROS generation,"[2]; 5 mM, positive reference",dramatic inhibition of ROS
same,Effect on rotenone-induced ROS generation,[5],dramatic inhibition of ROS
"O=C(Nc1ccc2c(ccn2C(=O)c2cccc(F)c2)c1)c1cnccn1 [VIII, N-(1-(3-fluorobenzoyl)-1H-indol-5-yl)pyrazine-2-carboxamide]",Selectivity Index (SI),[3]; previous study,> 120
same,IC50,[3]; previous study,0.777 µM
same,% MAO-B Inhibition,[3]; previous study,66.39%
same,IC50,[4]; previous study,> 100 µM
O=C(Nc1ccc2[nH]ncc2c1)c1c(F)cccc1Cl [VI],IC50,[3]; [7],3.3 µM
same,IC50,[4]; [7],> 10 µM
O=C(Nc1ccc2[nH]ncc2c1)c1cccc(Cl)c1Cl [V],IC50,[3]; [7],2.59 µM
same,IC50,[4]; [7],> 10 µM
O=C(Nc1ccc2c(ccn2Cc2ccccn2)c1)c1cnccn1 [X],% MAO-B Inhibition,[3]; previous study,2.38%
COc1ccc2c(c1)[nH]c1c(C)nccc12 [harmine],IC50,[4]; selective MAO-A inhibitor,0.006 µM
"C=C(C)[C@H]1Cc2c(ccc3c2O[C@@H]2COc4cc(OC)c(OC)cc4[C@@H]2C3=O)O1 [rotenone, reference compound]",Cell death of PC12 cells exposed to toxin,[6],53.1 ± 2.9%
